Non-standard residues stand in square brackets, D forms with d. Residues, ends and D or L forms follow the SMILES beside them.
Test system: pituitaries removed from 20 day old female rats
Assay: In vitro growth hormone release study (incubated rat pituitaries, GH radioimmunoassay)
Assay type: cell-based
Conditions: mean ± SEM, two pituitaries in 1 ml lactated Ringer's, 36° C.
Protocol: Female rats of the CD-1 strain were housed in a constant temperature room at 24° C. with 14 hours light and 10 hours darkness. The rats were fed Purina brand rat chow ab libitum.
All studies were started between 0800 and 1000 hours.
Pituitaries were removed from 20 day old female rats. Two pituitaries were incubated at 36° C. in 1 ml of lactated Ringer's solution in 10 ml polytetrafluoroethylene beakers in a Dubnoff Shaker (90 cycles/min.). The pituitaries were incubated a total of 4 hours (P1, P2, I3, and I4). After two successive one hour preincubation periods (P1, P2), the peptide was added to the incubation medium hourly for 2 hours (I3, I4).
This in vitro study was performed in triplicate and a standard radioimmunoassay of growth hormone present in the incubation medium was performed in duplicate. The hormonal activity was calculated as the difference (Δ) of growth hormone (GH) levels between I3, I4 and P2, i.e., (I3 -P2) and (I4 -P2). P values were calculated by Students' t test using six growth hormone values for each value recorded.
The growth hormone radioimmunoassay reagents were distributed by the National Institute of Arthritis and […] (NIAMDD) program. The growth hormone values were calculated in terms of nanograms (ng) of a rat standard with a growth hormone potency of 0.61 units/mg.

| Compound | In vitro growth hormone release (Δ GH levels, I3-P2 and I4-P2) (0.3μg peptide) | In vitro growth hormone release (Δ GH levels, I3-P2 and I4-P2) (1μg peptide) | In vitro growth hormone release (Δ GH levels, I3-P2 and I4-P2) (10μg peptide) | In vitro growth hormone release (Δ GH levels, I3-P2 and I4-P2) (0.1μg peptide) | In vitro growth hormone release (Δ GH levels, I3-P2 and I4-P2) (100μg peptide) |
| --- | --- | --- | --- | --- | --- |
| NC(=O)[C@H](Cc1ccc(O)cc1)NC(=O)[C@@H](Cc1c[nH]c2ccccc12)NC(=O)[C@@H](Cc1c[nH]c2ccccc12)NC(=O)[C@@H](N)Cc1ccc(O)cc1 [H2 N--Tyr--D-Trp--D-trp--Tyr--CONH2, H2 N-Tyr-D-Trp-D-Trp-Tyr-CONH2] (H-Y[dW][dW]Y-NH2) | 345 ± 103 ng GH/ml incubation medium | 1111 ± 572 ng GH/ml incubation medium | 1898 ± 267 ng GH/ml incubation medium | – | – |
| H2 N-Tyr-D-Trp-D-Trp-Phe-CONH2 [H2 N--Tyr--D-Trp--D-Trp--Phe--CONH2] | – | 686 ± 82 ng GH/ml incubation medium | 1790 ± 160 ng GH/ml incubation medium | 453 ± 48 ng GH/ml incubation medium | 984 ± 355 ng GH/ml incubation medium |
